# Source: patent publication US20240317780A1, “RADIOPHARMACEUTICAL SOMATOSTATIN RECEPTOR LIGANDS AND PRECURSORS THEREOF” (Technische Universität München, priority 2021, published 2024)
# Assay: Octanol-water distribution coefficient (logD pH 7.4) of the labeled tracer
# Format: physicochemical
# Settings: n-octanol/PBS pH 7.4, room temperature
# Protocol: Approximately 1 MBq of the labeled tracer was dissolved in 1 mL of a 1:1 mixture (by volumes) of phosphate buffered saline (PBS, pH 7.4) and n-octanol in an Eppendorf tube. After vigorous mixing of the suspension for 3 minutes at room temperature, the vial was centrifuged at 15000 g for 5 minutes (Biofuge 15, Heraus Sepatech, Osterode, Germany) and 100 μL aliquots of both layers were measured in a gamma counter. The experiment was repeated at least six times.
row,Structure (SMILES),LogDpH=7.4
1,C[C@@H](O)[C@H](NC(=O)C1CSSCC(NC(=O)C(Cc2ccccc2)NC(=O)[C@@H](CC(N)=O)NC(=O)C(CC(N)=O)NC(=O)CNC(=O)C(CC(=O)O)NC(=O)[C@@H](CC(=O)O)NC(=O)C(CNC(=O)CN2CCN(CC(=O)O)CCN(CC(=O)O)CCN(CC(=O)O)CC2)NC(=O)C[N+](C)(C)Cc2ccc([Si](F)(C(C)(C)C)C(C)(C)C)cc2)C(=O)N[C@@H](Cc2ccc(O)cc2)C(=O)NC(Cc2c[nH]c3ccccc23)C(=O)N[C@@H](CCCCN)C(=O)N[C@@H]([C@@H](C)O)C(=O)N1)C(=O)O (stereo partly drawn) [[Lu]49],−2.24 ± 0.06
2,"C[C@@H](O)[C@H](NC(=O)C1CSSCC(NC(=O)C(Cc2ccccc2)NC(=O)COCCOCCNC(=O)C(CC(=O)O)NC(=O)[C@@H](CC(=O)O)NC(=O)C(CNC(=O)c2ccc([Si](F)(C(C)(C)C)C(C)(C)C)cc2)NC(=O)CCC(C(=O)O)N2CCN(CC(=O)O)CCN(CC(=O)O)CCN(CC(=O)O)CC2)C(=O)N[C@@H](Cc2ccc(O)cc2)C(=O)NC(Cc2c[nH]c3ccccc23)C(=O)N[C@@H](CCCCN)C(=O)N[C@@H]([C@@H](C)O)C(=O)N1)C(=O)O (stereo partly drawn) (natGa complex, metal not drawn) [[Ga]1]",−2.02 ± 0.04
3,C[C@@H](O)[C@H](NC(=O)C1CSSCC(NC(=O)C(Cc2ccccc2)NC(=O)[C@@H](CC(N)=O)NC(=O)C(CC(N)=O)NC(=O)[C@@H](CC(=O)O)NC(=O)C(CC(=O)O)NC(=O)[C@@H](CNC(=O)CN2CCN(CC(=O)O)CCN(CC(=O)O)CCN(CC(=O)O)CC2)NC(=O)C[N+](C)(C)Cc2ccc([Si](F)(C(C)(C)C)C(C)(C)C)cc2)C(=O)N[C@@H](Cc2ccc(O)cc2)C(=O)NC(Cc2c[nH]c3ccccc23)C(=O)N[C@@H](CCCCN)C(=O)N[C@@H]([C@@H](C)O)C(=O)N1)C(=O)O (stereo partly drawn) [[Lu]48],−2.19 ± 0.05
4,C[C@@H](O)[C@H](NC(=O)C1CSSCC(NC(=O)C(Cc2ccccc2)NC(=O)CNC(=O)CNC(=O)CNC(=O)C(CC(=O)O)NC(=O)[C@@H](CC(=O)O)NC(=O)C(CCCNC(N)=O)NC(=O)[C@@H](CNC(=O)C[N+](C)(C)Cc2ccc([Si](F)(C(C)(C)C)C(C)(C)C)cc2)NC(=O)CN2CCN(CC(=O)O)CCN(CC(=O)O)CCN(CC(=O)O)CC2)C(=O)N[C@@H](Cc2ccc(O)cc2)C(=O)NC(Cc2c[nH]c3ccccc23)C(=O)N[C@@H](CCCCN)C(=O)N[C@@H]([C@@H](C)O)C(=O)N1)C(=O)O (stereo partly drawn) [[Lu]46],−2.12 ± 0.05
5,C[C@@H](O)[C@H](NC(=O)C1CSSCC(NC(=O)C(Cc2ccccc2)NC(=O)CNC(=O)CNC(=O)CNC(=O)C(CC(=O)O)NC(=O)[C@@H](CC(=O)O)NC(=O)C(CCC(=O)O)NC(=O)[C@@H](CNC(=O)C[N+](C)(C)Cc2ccc([Si](F)(C(C)(C)C)C(C)(C)C)cc2)NC(=O)CN2CCN(CC(=O)O)CCN(CC(=O)O)CCN(CC(=O)O)CC2)C(=O)N[C@@H](Cc2ccc(O)cc2)C(=O)NC(Cc2c[nH]c3ccccc23)C(=O)N[C@@H](CCCCN)C(=O)N[C@@H]([C@@H](C)O)C(=O)N1)C(=O)O (stereo partly drawn) [[Lu]47],−2.29 ± 0.03
6,"C[C@@H](O)[C@H](NC(=O)C1CSSCC(NC(=O)C(Cc2ccccc2)NC(=O)COCCOCCNC(=O)C(CC(=O)O)NC(=O)[C@@H](CC(=O)O)NC(=O)C(CNC(=O)c2ccc([Si](F)(C(C)(C)C)C(C)(C)C)cc2)NC(=O)CN2CCN(CC(=O)O)CCN(CC(=O)O)CCN(CC(=O)O)CC2)C(=O)N[C@@H](Cc2ccc(O)cc2)C(=O)NC(Cc2c[nH]c3ccccc23)C(=O)N[C@@H](CCCCN)C(=O)N[C@@H]([C@@H](C)O)C(=O)N1)C(=O)O (stereo partly drawn) (natGa complex, metal not drawn) [[Ga]3]",−1.87 ± 0.07
7,"C[C@@H](O)[C@H](NC(=O)C1CSSCC(NC(=O)C(Cc2ccccc2)NC(=O)COCCOCCNC(=O)C(CC(=O)O)NC(=O)[C@@H](CC(=O)O)NC(=O)C(CNC(=O)CCC(C(=O)O)N2CCN(CC(=O)O)CCN(CC(=O)O)CCN(CC(=O)O)CC2)NC(=O)c2ccc([Si](F)(C(C)(C)C)C(C)(C)C)cc2)C(=O)N[C@@H](Cc2ccc(O)cc2)C(=O)NC(Cc2c[nH]c3ccccc23)C(=O)N[C@@H](CCCCN)C(=O)N[C@@H]([C@@H](C)O)C(=O)N1)C(=O)O (stereo partly drawn) (natGa complex, metal not drawn) [[Ga]2]",−2.3 ± 0.09
8,C[C@@H](O)[C@H](NC(=O)C1CSSCC(NC(=O)C(Cc2ccccc2)NC(=O)CNC(=O)CNC(=O)[C@@H](CC(=O)O)NC(=O)C(CC(=O)O)NC(=O)[C@@H](CNC(=O)CN2CCN(CC(=O)O)CCN(CC(=O)O)CCN(CC(=O)O)CC2)NC(=O)C(CN)NC(=O)c2ccc([Si](F)(C(C)(C)C)C(C)(C)C)cc2)C(=O)N[C@@H](Cc2ccc(O)cc2)C(=O)NC(Cc2c[nH]c3ccccc23)C(=O)N[C@@H](CCCCN)C(=O)N[C@@H]([C@@H](C)O)C(=O)N1)C(=O)O (stereo partly drawn) [[Lu]19],−1.85 ± 0.02
9,C[C@@H](O)[C@H](NC(=O)C1CSSCC(NC(=O)C(Cc2ccccc2)NC(=O)CNC(=O)CNC(=O)CNC(=O)C(CC(=O)O)NC(=O)[C@@H](CC(=O)O)NC(=O)C(CCCCN)NC(=O)[C@@H](CNC(=O)C[N+](C)(C)Cc2ccc([Si](F)(C(C)(C)C)C(C)(C)C)cc2)NC(=O)CN2CCN(CC(=O)O)CCN(CC(=O)O)CCN(CC(=O)O)CC2)C(=O)N[C@@H](Cc2ccc(O)cc2)C(=O)NC(Cc2c[nH]c3ccccc23)C(=O)N[C@@H](CCCCN)C(=O)N[C@@H]([C@@H](C)O)C(=O)N1)C(=O)O (stereo partly drawn) [[Lu]45],−2.10 ± 0.08
10,C[C@@H](O)[C@H](NC(=O)C1CSSCC(NC(=O)C(Cc2ccccc2)NC(=O)CNC(=O)CNC(=O)[C@@H](CC(=O)O)NC(=O)C(CC(=O)O)NC(=O)[C@@H](CNC(=O)CN2CCN(CC(=O)O)CCN(CC(=O)O)CCN(CC(=O)O)CC2)NC(=O)C[N+](C)(C)Cc2ccc([Si](F)(C(C)(C)C)C(C)(C)C)cc2)C(=O)N[C@@H](Cc2ccc(O)cc2)C(=O)NC(Cc2c[nH]c3ccccc23)C(=O)N[C@@H](CCCCN)C(=O)N[C@@H]([C@@H](C)O)C(=O)N1)C(=O)O (stereo partly drawn) [[Lu]24],−1.90 ± 0.05
11,C[C@@H](O)[C@H](NC(=O)C1CSSCC(NC(=O)C(Cc2ccccc2)NC(=O)CNC(=O)CNC(=O)CNC(=O)C(CC(=O)O)NC(=O)[C@@H](CC(=O)O)NC(=O)C(CNC(=O)C[N+](C)(C)Cc2ccc([Si](F)(C(C)(C)C)C(C)(C)C)cc2)NC(=O)CN2CCN(CC(=O)O)CCN(CC(=O)O)CCN(CC(=O)O)CC2)C(=O)N[C@@H](Cc2ccc(O)cc2)C(=O)NC(Cc2c[nH]c3ccccc23)C(=O)N[C@@H](CCCCN)C(=O)N[C@@H]([C@@H](C)O)C(=O)N1)C(=O)O (stereo partly drawn) [[Lu]44],−1.98 ± 0.05
12,"C[C@@H](O)[C@H](NC(=O)C1CSSCC(NC(=O)C(Cc2ccccc2)NC(=O)COCCOCCNC(=O)C(CC(=O)O)NC(=O)[C@@H](CC(=O)O)NC(=O)C(CNC(=O)CN2CCN(CC(=O)O)CCN(CC(=O)O)CCN(CC(=O)O)CC2)NC(=O)c2ccc([Si](F)(C(C)(C)C)C(C)(C)C)cc2)C(=O)N[C@@H](Cc2ccc(O)cc2)C(=O)NC(Cc2c[nH]c3ccccc23)C(=O)N[C@@H](CCCCN)C(=O)N[C@@H]([C@@H](C)O)C(=O)N1)C(=O)O (stereo partly drawn) (natGa complex, metal not drawn) [[Ga]4]",−2.15 ± 0.11
